According to patent US8173131B2, “Compositions and methods for modulating RSV infection and immunity” (PerkinElmer Health Sciences, Inc., priority 2000, dated 2012):

Tests used:
[1] = system: cell trafficking to the lung (BAL cells); test: In vivo cell trafficking to the lung of naïve mice after intranasal treatment; parameters: species or system BALB/c mice
Experimental: FIG. 5A is a bar graph showing leukocyte chemotaxis toward G glycoprotein or fractalkine (Fkn) in the presence or absence of anti-CX3CR1 antibody or normal rabbit sera. The chemotactic index determined from the fold increase of murine leukocyte migration toward the chemoattractant (e.g., Fkn or G glycoprotein) over the leukocyte migration toward the media alone control using modified Boyden chambers. Fkn, G glycoprotein, […] (10 μg) or normal rabbit sera (10 μg) was added to the upper chamber to examine antagonism of cell migration toward the chemoattractant in the lower chamber. FIG. 5B is a bar graph showing cell trafficking to the lung of naïve BALB/c mice intranasally treated with G glycoprotein, fractalkine or G glycoprotein peptides RT32, RT33 or RT34. BAL cells were fixed and stained with H&E. Cell subsets were determined as a percentage of the total BAL cells counted from >200 cells/slide counting two slides for each experiment. The percent cell type represents the median±SE from three separate experiments. * indicates significant difference compared to tissue culture media alone (p<0.05). Naïve BALB/c mice were i.n. treated with 1 μM G glycoprotein or fractalkine or with 1 μM G glycoprotein peptides. The BAL was collected 2 days post-treatment for analysis.
Cell trafficking to the lung in naïve and FI-RSV-immune BALB/c mice was examined following intranasal treatment with either 1 μM fractalkine, RSV G glycoprotein or RSV G peptides. All mice were females purchased from Harlan Sprague Dawley (Indianapolis, Ind.) and maintained at the Centers for Disease Control and Prevention in Atlanta, Ga. FI-RSV-immune mice were immunized in the superficial gluteal muscle using 10^6 pfu equivalents of FI-RSV in accordance with methods known to those skilled in the art. Mice were anesthetized with 2,2,2,-tribromoethanol and intranasally treated with 0.05 ml of either fractalkine, RSV G glycoprotein or peptide diluted in PBS (GIBCO). At day two post-treatment, the mice were anesthetized, exsanguinated by severing the right caudal artery, and the bronchoalveolar (BAL) cells collected in PBS containing 1% BSA (Sigma). BAL cells were blocked with 10% normal mouse sera (Jackson Laboratories, Bar Harbor, Me.) in PBS, and then stained with the appropriate combinations of FITC- or PE-labeled anti-CD3 (145-2C11), anti-CD4 (GK1.5), anti-CD8 (53-6.7), anti-CD11b (M1/70), anti-CD45R/B220 (RA3-6B2), anti-pan NK cell (DX5), anti-neutrophil (RB6-8C5), and mouse isotype Ab controls (all from PharMingen, San Diego, Calif.). The distribution of cell surface markers was determined in two-color mode on a FACScan with CellQUEST software (Becton-Dickinson, Mountain View, Calif.).

[2] = system: RSV; test: RSV plaque reduction by small molecule peptide inhibitors on Vero cells (Example II); type: cell-based, RSV/A2; details: peptide added to heparin 5 μg/ml; in words
Experimental: Vero cells were treated with PBS, RT33, RT34, Δ+1, Δ−1 and EYp1 peptides (100 μm) in the presence (B) or absence of heparin (A) (5 μg/ml). Percentage inhibition was determined by dividing the mean plaque forming units (PFU) of treated Vero cells by the mean PFU of PBS-treated Vero cells.
Different concentrations of the G glycoprotein peptides and/or 5 μg/ml heparin (Sigma) were diluted in Dulbecco's phosphate buffered saline (D-PBS; GIBCO) and added to Vero cell monolayers for 1 h at 37° C. Pre-treated Vero cells were infected with 10^6 PFU of RSV/A2 diluted in serum-free DMEM (GIBCO) for 2 h at 37° C., after which DMEM (GIBCO) containing 10% FBS (Hyclone, Logan, Utah) was added, and the infected cells incubated at 37° C. for 3-4 days. Plaques were enumerated by immunostaining with monoclonal antibodies against the G and F glycoproteins (130-2G and 131-2A, respectively), as described (54,55).

[3] = system: CD3+ BAL cells; test: Intracellular cytokine expression by CD3+ T cells following in vivo peptide treatment; parameters: species or system BALB/c mice
Experimental: On day −1, prior to RSV infection, mice were i.p. treated (0.1 ml/mouse) with 100 μM of G glycoprotein peptides RT33 (CWAIC) (SEQ ID NO: 12), RT34 (lacks the CX3C motif) or peptides with changes in the CX3C motif (Δ+1, Δ−1, EYp1). Control mice were treated with PBS containing a similar dilution of DMSO used to solubilize the peptides.
Intracellular cytokine staining was modified for microculture staining as described (55, 57). Briefly, BAL cells were incubated in PBS containing Golgi Stop (Pharmingen) for 3 h at 37° C. to allow for accumulation of intracellular cytokines. The cells were washed in PBS containing 1% bovine serum albumin, blocked with 10% normal mouse sera diluted in PBS containing 1% bovine serum albumin, and stained (4° C., 30 min) with an appropriate dilution of anti-CD3 antibody, fixed and permeabilized in Cytofix/Cytoperm (Pharmingen). The cells were washed in Cytofix/Cytoperm buffer and stained (4° C., 30 min) with appropriate dilutions of anti-IL-2 (JES6-5H4), anti-IL-4 (BVD4-1D11), anti-IL-5 (TRFK5), IL-10 (JES3-16E3), anti-IFNγ (XMG1.2), or anti-TNFα (MP6-XT22) antibodies (Pharmingen) diluted in Cytofix/Cytoperm. Extra- and intracellular staining was analyzed by flow cytometry using a FACScan and Cell Quest software (Becton Dickinson, San Diego, Calif.). Total cytokine expression by CD3+ T cells was determined from the percent cytokine expression of CD3+ T cells and total number of cells recovered. The total number of CD3+ BAL cells expressing a particular cytokine was determined by multiplying the total number of BAL cells by the percent CD3+ cells expressing that particular cytokine.

[4] = day 2 post-treatment, lymphocyte gate
[5] = day 2 post-treatment, ungated events
[6] = naïve BALB/c mice, i.n. 1 μM, day 2 post-treatment, median ± SE

## NKKPGKKTTTKP [RT34]
[1]; [4]
  Percentage of cells from BAL determined by flow cytometry: B220: 4 ± 2%
  Percentage of cells from BAL determined by flow cytometry: CD4: 6 ± 2%
  Percentage of cells from BAL determined by flow cytometry: CD8: 3 ± 3%
[1]; [5]
  Percentage of cells from BAL determined by flow cytometry: CD11b: 3 ± 1%
  Percentage of cells from BAL determined by flow cytometry: DX5: 6 ± 2%
  Percentage of cells from BAL determined by flow cytometry: RB6-8C5: 6 ± 4%
[1]; [6]
  Percentage of cells from BAL determined by H&E stain: Eosinophil: 0 ± 0%
  Percentage of cells from BAL determined by H&E stain: Lymphocyte: 8 ± 2%
  Percentage of cells from BAL determined by H&E stain: Macrophage: 86 ± 8%
  Percentage of cells from BAL determined by H&E stain: PMN: 8 ± 3%
[1]; naïve BALB/c mice, intranasal 1 μM, 48 hours post-treatment
  mean BAL cell numbers (±SEM) recovered: 2.8 (±0.2) ×10^5 cells/ml
[2]
  effect of adding peptide to heparin on plaque reduction: no effect above heparin treatment alone
[3]; day 3 pi
  Total IC cytokine Expressing CD3^+ BAL cells (×10^3) ± SEM: IFNγ: 43 ± 9.4 ×10^3
  Total IC cytokine Expressing CD3^+ BAL cells (×10^3) ± SEM: IL-4: 43 ± 9.2 ×10^3
  Total IC cytokine Expressing CD3^+ BAL cells (×10^3) ± SEM: IL-5: 28 ± 8.0 ×10^3
  Total IC cytokine Expressing CD3^+ BAL cells (×10^3) ± SEM: IL-6: 47 ± 10 ×10^3
  Total IC cytokine Expressing CD3^+ BAL cells (×10^3) ± SEM: TNFα: 57 ± 12 ×10^3
[3]; day 3 pi, peptide 24 hours prior to RSV infection
  Total IC cytokine Expressing CD3^+ BAL cells (×10^3) ± SEM: IL-2: 40 ± 8.5 ×10^3
[3]; day 5 pi
  Total IC cytokine Expressing CD3^+ BAL cells (×10^3) ± SEM: IFNγ: 18 ± 2.6 ×10^3
  Total IC cytokine Expressing CD3^+ BAL cells (×10^3) ± SEM: IL-2: 19 ± 2.8 ×10^3
  Total IC cytokine Expressing CD3^+ BAL cells (×10^3) ± SEM: IL-4: 15 ± 2.2 ×10^3
  Total IC cytokine Expressing CD3^+ BAL cells (×10^3) ± SEM: IL-5: 24 ± 3.5 ×10^3
  Total IC cytokine Expressing CD3^+ BAL cells (×10^3) ± SEM: IL-6: 30 ± 4.4 ×10^3
  Total IC cytokine Expressing CD3^+ BAL cells (×10^3) ± SEM: TNFα: 27 ± 3.9 ×10^3
[3]; day 7 pi
  Total IC cytokine Expressing CD3^+ BAL cells (×10^3) ± SEM: IFNγ: 10 ± 3.5 ×10^3
  Total IC cytokine Expressing CD3^+ BAL cells (×10^3) ± SEM: IL-2: 7.7 ± 2.6 ×10^3
  Total IC cytokine Expressing CD3^+ BAL cells (×10^3) ± SEM: IL-4: 11 ± 3.6 ×10^3
  Total IC cytokine Expressing CD3^+ BAL cells (×10^3) ± SEM: IL-5: 8.7 ± 2.9 ×10^3
  Total IC cytokine Expressing CD3^+ BAL cells (×10^3) ± SEM: IL-6: 8.9 ± 3.0 ×10^3
  Total IC cytokine Expressing CD3^+ BAL cells (×10^3) ± SEM: TNFα: 31 ± 5.0 ×10^3
[3]; day 14 pi
  Total IC cytokine Expressing CD3^+ BAL cells (×10^3) ± SEM: IFNγ: 9.7 ± 1.5 ×10^3
  Total IC cytokine Expressing CD3^+ BAL cells (×10^3) ± SEM: IL-2: 5.4 ± 1.9 ×10^3
  Total IC cytokine Expressing CD3^+ BAL cells (×10^3) ± SEM: IL-4: 8.2 ± 1.3 ×10^3
  Total IC cytokine Expressing CD3^+ BAL cells (×10^3) ± SEM: IL-5: 10 ± 1.7 ×10^3
  Total IC cytokine Expressing CD3^+ BAL cells (×10^3) ± SEM: IL-6: 11 ± 1.7 ×10^3
  Total IC cytokine Expressing CD3^+ BAL cells (×10^3) ± SEM: TNFα: 10 ± 1.6 ×10^3
